≈ marks a conversion by molar mass, not a printed value. Calls of active or inactive are those of the source. The rule behind the calls is not given here.
How the values were obtained:
[1] = Binding affinity DPPC multilamellar vesicles assessed as main transition temperature at 1:2 compound/lipid ratio after 2 hrs by differential scanning calorimetry method (reference value: 41.98 degC)
[2] = Binding affinity DPPC multilamellar vesicles assessed as pre-transition temperature at 1:20 compound/lipid ratio after 2 hrs by differential scanning calorimetry method (reference value: 34.10 degC)
HepG2 = test: Antiproliferative activity against human HepG2 cells assessed as cell growth at 10^-4 ug/ml after 48 hrs by SRB assay relative to control; assay type: functional; conditions: HepG2, 48 h, read-out: Activity
[3] = Binding affinity DPPC multilamellar vesicles assessed as main transition temperature at 1:5 compound/lipid ratio after 2 hrs by differential scanning calorimetry method (reference value: 41.98 degC)
[4] = Binding affinity DPPC multilamellar vesicles assessed as main transition temperature at 1:20 compound/lipid ratio after 2 hrs by differential scanning calorimetry method (reference value: 41.98 degC)
[5] = test system: Radical scavenging activity; test: Antioxidant activity assessed as DPPH radical scavenging activity after 30 mins; assay type: functional
[6] = Binding affinity DPPC multilamellar vesicles assessed as chemical shift at 1:5 compound/lipid ratio at 333 K by nuclear magnetic resonance analysis
[7] = Binding affinity DPPC multilamellar vesicles assessed as main transition temperature at 1:10 compound/lipid ratio after 2 hrs by differential scanning calorimetry method (reference value: 41.98 degC)
[8] = Binding affinity to 0.5 mg/ml of DPPC multilamellar vesicles at 100 uM after 2 hrs by centrifugation method; assay type: physicochemical
[9] = Binding affinity DPPC multilamellar vesicles assessed as pre-transition temperature at 1:10 compound/lipid ratio after 2 hrs by differential scanning calorimetry method (reference value: 34.10 degC)
[10] = Binding affinity DPPC multilamellar vesicles assessed as chemical shift at 1:5 compound/lipid ratio at 303 K by nuclear magnetic resonance analysis
[11] = Binding affinity DPPC multilamellar vesicles assessed as chemical shift at 1:5 compound/lipid ratio at 323 K by nuclear magnetic resonance analysis
K562 = test: Antiproliferative activity against human K562 cells assessed as cell growth at 10^-4 ug/ml after 48 hrs by SRB assay relative to control; assay type: functional; conditions: K562, 48 h, read-out: Activity
MCF7 = test: Antiproliferative activity against human MCF7 cells assessed as cell growth at 10^-4 ug/ml after 48 hrs by SRB assay relative to control; assay type: functional; conditions: MCF7, 48 h, read-out: Activity
[12] = Binding affinity DPPC multilamellar vesicles after 2 hrs by centrifugation method; assay type: physicochemical

Row | Compound | T [1] | T [2] | growth at 0.0001 µg/mL (HepG2) | T [3] | T [4] | IC50 [5] | Activity [6] | T [7] | Activity [8] | T [9] | Activity [10] | Activity [11] | growth at 0.0001 µg/mL (K562) | growth at 0.0001 µg/mL (MCF7) | Kapp [12]
1 | O=c1c(O)c(-c2ccc(O)c(O)c2)oc2cc(O)ccc12 [FISETIN] | 39.2 °C | 30.1 °C | 62.8% | 38.3 °C | 40.8 °C | 9.26 µg/mL (≈ 32.4 µM) | Active | 39.3 °C | 60% | 26.2 °C | Active | Active | 33.7% | 47.1% | 10438 M⁻¹
2 | O=c1c(O)c(-c2ccccc2)oc2cc(O)cc(O)c12 [GALANGIN] | 36.5 °C |  | 23.7% | 37.6 °C | 38.7 °C | 11.4 µg/mL (≈ 42.2 µM) | Active | 37.9 °C | 60% |  | Active | Active | 74.8% | 68.2% | 16701 M⁻¹
3 | O=c1c(O)c(-c2ccc(O)c(O)c2)oc2cc(O)cc(O)c12 [QUERCETIN] | 41 °C |  | -5.4% | 39.6 °C | 40.2 °C | 9.14 µg/mL (≈ 30.2 µM) | Active | 39.7 °C | 60% |  | Active | Active | 12.4% | 8.3% | 10710 M⁻¹
